Values of other authors, collected in patent US11173114B1, “Method and system for manufacturing and oral soluble films and oral soluble films made by thereby” (NOVA Thin Film Pharmaceuticals LLC, priority 2020, dated 2021).
Where two headings read alike, the source gives them in different places.

O [Water]
Surface tension (head printed □) (25 ° C.): 71.97 mN/m
Surface tension (head printed □) (40 ° C.): 69.56 mN/m
Surface tension (head printed □) (80 ° C.): 62.6 mN/m
